# Experiments:
# HT-29 cells [1] = assay: Annexin V-APC/7AAD cell death assay; assay type: cell-based, human
# Description: (§1) 6 × 10^5 cells/well were grown in 6-well plates for 24 h. Cultures were treated with the corresponding amount of the selected compounds, DMSO (control), or 10 μM camptothecin (positive control). Propidium iodide (PI) was used as DNA stain dye to determine cell cycle distribution. Cells were stored at −20 °C with 70% ethanol for at least 24 h. Then, ethanol was removed, cells were washed with PBS, and stained for 30 min with 500 µL of a solution containing 0.001% triton, 0.2% w/v RNase, and 0.02% PI.
# For the determination of apoptosis, APC Annexin V Apoptosis Detection Kit with 7-AAD from Biolegend® was employed following the staining procedure described by the manufacturer. Samples were analyzed by flow cytometry using a BD Accuri™ C6 Plus Flow Cytometer (Beckton, Dickinson and company, Franklin Lakes (NJ), USA).
# Mounting evidence of the anticancer potential of selenium compounds can be found in the literature. […] Remarkably, these mechanisms vary depending on the selenium compound and on cell phenotype. […] Assays were conducted at different 6c concentrations ranging from 0.1 to 10 µM. Camptothecin (10 µM) was used as positive control.
# [2] = test system: MCF-7, HTB-54, HT-29 and HCT-116 cancer cell lines; assay: MTT assay, panel of four cancer cell lines; assay type: cell-based; settings: MCF-7, HTB-54, HT-29, HCT-116, read-out: IC50 against the four cancer cell lines tested (all the cell lines)
# Description: (§2) A cell viability assay of each compound was carried out using an MTT assay. Each selenourea was dissolved in dimethyl sulfoxide (DMSO) at a concentration of 0.01 M. Serial dilutions were prepared with non-supplemented culture medium. Cytotoxic activity of each selenourea was determined at two different concentrations (10 and 50 µM) in MCF-7, HTB-54, and HT-29 cells. In addition, selected compounds were tested at seven different concentrations (0.1, 1, 5, 10, 25, 50, 100 µM) on MCF-7, HT-29, HCT-116, HTB-54, 184B5, and BEAS-2B cells. The number of passages before defrosting the cells was 3, and they were kept under culture up to a maximum of 15.
# (§3) Briefly, 1 × 10^4 cells/well were grown in 96-well plates for 24 h. Then, these cells were incubated with either DMSO (negative control) at 5 µM or a different concentration of each tested selenourea for 48 h. A volume of 20 µL of MTT was added 150 min before the termination point to measure cellular viability. After this time, culture medium was removed. The resultant formazan crystals were dissolved in 50 µL of DMSO, and absorbance was measured at 570 nm. Results are expressed as IC50, the half maximal inhibitory concentration. This value was calculated using GraphPad Prism 7 software by nonlinear curve fitting. Furthermore, the selectivity index (SI) was calculated as the ratio of the IC50 values determined for the non-malignant and the tumoral cells (IC50 (184B5)/IC50 (MCF-7) or (IC50 (BEAS-2B)/IC50 (HTB-54). Data were obtained from at least three independent experiments performed in triplicates.
# Those derivatives that reduced the growth of the cell lines below 50% at 10 µM in at least one cell line were selected for being evaluated at five concentrations between […] and 100 µM. Ten compounds (1d, 1e, 2a, 2d, 3a, 6a, 6b, 6c, 6d, and 6e) passed this threshold and four of them (1e, 6c, 6d and 6e) in all three cancer cell lines. The data are expressed as IC50 (mean ± SD) in a panel of four cancer cell lines (MCF-7, HTB-54, HT-29, and HCT-116), and are shown in Table 1. Cisplatin was used as a standard drug. […] Additionally, reported IC50 values of a well-known antitumor selenocompound, i.e., sodium selenite (Na2SeO3), were used as reference for comparision with the selected selenoureas.
# [3] = test system: MCF-7 cells (breast adenocarcinoma); assay: MTT cell viability assay, MCF-7; assay type: cell-based, human
# Method in brief: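 Cells at 1 × 10^4/well grown 24 h, then treated 48 h with selenourea at 10 and 50 µM (selected compounds 0.1–100 µM), DMSO as negative control. MTT added 150 min before end, formazan read at 570 nm; IC50 by nonlinear fit, ≥3 independent experiments in triplicate.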
# HT-29 cells [4] = assay: Cell cycle progression, propidium iodide flow cytometry; assay type: cell-based, human; settings: HT-29, 48 h, 0.1, 1, 5 and 10 µM
# Description: as §1
# To gain further knowledge about the mechanism of action of 6c, we investigated the effect of this compound on cell cycle progression using flow cytometry analysis, with propidium iodide as a DNA staining agent. We analyzed the effect at 48 h treatment with four different concentrations (0.1, 1, 5, and 10 µM) of compound 6c on HT-29 cells. Camptothecin (10 μM) was used as a positive control. […] The cell cycle modulation of 6c is very similar to camptothecin, the reference compound used in the study.
# [5] = test system: 184B5 cells (breast non-malignant derived cell line); assay: MTT cell viability assay, 184B5; assay type: cell-based; settings: Homo sapiens, 184B5; 48 h, MTT, mean ± SD; read-out: IC50 184B5 (breast, non-malignant)
# Description: Cell lines were purchased from the American Type Culture Collection (ATCC). MCF-7, HTB-54, BEAS-2B and 184B5 cell lines were grown in RPMI 1640 medium (Gibco) supplemented with 10% fetal bovine serum (FBS; Gibco), 100 units/mL penicillin, and […] streptomycin (Gibco). HT-29 and HCT-116 cell lines was cultured in McCoy’s 5A (Gibco), 10% FBS, 100 units/mL penicillin, and 100 μg/mL streptomycin. Cells were maintained at 37 °C and 5% CO2. Culture medium was replaced every three days.
# as §2, §3
# [6] = HT-29, 6c 10 µM, 24 h, 30 min preincubation
structure (smiles),measurement,setting,value
"COc1ccc(NC(=[Se])NC23CC4CC(CC(C4)C2)C3)cc1 [Compound 6c, N´-adamantyl-N-(4-methoxyphenyl)selenourea]",cell death after pre-incubation with PI3K inhibitor wortmannin,HT-29 cells [1]; [6],prevented induction cell death
same,number of dead cells after pre-incubation with pancaspase inhibitor z-VAD-fmk,HT-29 cells [1]; [6],no significant differences in the number of dead cells
same,number of dead cells (7AAD positive cells),"HT-29 cells [1]; HT-29, 48 h, 5 and 10 µM",increased the number of dead cells
same,IC50,[2],< 10 µM
same,IC50,"[3]; Homo sapiens, MCF7, 48 h, MTT, mean ± SD, read-out: IC50 MCF-7 (breast)",4.94 ± 1.99 µM
same,viability at 10 µM,"[3]; Homo sapiens, MCF7, MCF-7, 10 µM, 48 h, MTT, read-out: cell viability, percentage of live cells",37.9%
same,viability at 50 µM,"[3]; Homo sapiens, MCF7, MCF-7, 50 µM, 48 h, MTT, read-out: cell viability, percentage of live cells",9.2%
same,SI (selectivity index) breast,[3]; IC50 (184B5)/IC50 (MCF-7),1.46
same,cell cycle modulation,HT-29 cells [4],cell cycle arrest at the S phase in a concentration-dependent manner
same,IC50,[5],7.23 ± 2.28 µM
